# Reference: PMC10989020, “Preclinical characterization of a non-peptidomimetic HIV protease inhibitor with improved metabolic stability” (Antimicrobial Agents and Chemotherapy, 2024)
# Where two headings read alike, the source gives them in different places.
# Columns and labels:
# [1] = Cytotoxicity in CD4+ T-lymphocytes; format: cell-based; conditions: human, uninfected (mock infected) primary CD4+ T lymphocytes
# Method: (§1) Compound cytotoxicity assessment in MT-4 cells, primary CD4+ T lymphocytes, and MDMs was carried out using a protocol identical to the antiviral assay except uninfected cells were used and tested with higher concentration ranges of test compounds. Assessment of cytotoxicity in additional human cell lines (Gal-PC3, Gal-HepG2, HEp-2, Huh-7, MRC-5, HepG2-NTCP, Huh7-Lunet HCV 1b and 2a replicons, NHBE, A549-hACE2) and primary human PBMCs (resting and stimulated with PHA/IL-2) and hepatocytes have been described previously ([19]). For all cytotoxicity assays, the CC50 value for puromycin was determined as a positive internal control and to assess assay sensitivity in each cell type. The effect of tested compounds on cell viability was measured using a CellTiter-Glo readout, performed according to the manufacturer’s recommendations.
# [2] = Predicted clearance from cynomolgus monkey liver microsome fractions; format: in vitro ADME
# [3] = Cytotoxicity in MRC-5; format: cell-based; conditions: human, MRC-5 cells
# Method: as §1
# [4] = tested on: HIV-1IIIb; assay: Antiviral activity in MT-2/HIV-1IIIb cultures; format: cell-based; conditions: Human immunodeficiency virus 1
# [5] = tested on: HCV-2a; assay: microbe, parasite or virus in culture; conditions: Hepatitis C virus, Huh-7
# [6] = in vitro; format: cell-based; conditions: human
# Method: as §1
# [7] = Cytotoxicity in primary human hepatocytes; format: cell-based
# Method: as §1
# [8] = Metabolic stability in human liver microsomes; format: in vitro ADME
# [9] = Cytotoxicity in monocyte-derived macrophages; format: cell-based; conditions: human, uninfected (mock infected) monocyte-derived macrophages
# Method: as §1
# [10] = Repeated oral administration in dogs; format: in vivo; conditions: high doses
# [11] = tested on: panel of 49 patient-derived HIV-1 reporter viruses with PI resistance-associated substitutions; format: cell-based
# [12] = tested on: HIV-1 Gag (p55) polyprotein cleavage; assay: Gag polyprotein processing immunoblot in transfected HEK293T cells; format: cell-based; conditions: 2 days post-transfection, anti-p24 immunoblot
# [13] = tested on: two HIV-2 isolates; assay: Antiviral assay in PBMCs with HIV-2 clinical isolates (RT endpoint); format: cell-based; conditions: Human immunodeficiency virus 2, PBMC, 168 h, 7-day, RT activity
# Method: Antiviral assays using fresh human PBMCs independently infected with a panel of clinical HIV-1 and HIV-2 isolates were performed by Southern Research as a contracted research study and assessed 7 days post-infection using reverse transcriptase (RT) endpoint assay. Antiviral assays using HIV-1 reporter viruses containing patient-derived sequences encoding all of PR and a portion of RT (amino acids 1–313) and conferring resistance to FDA-approved HIV PIs were performed by Monogram Biosciences Inc. (South San Francisco, CA) using their previously described Phenosense assay ([25]).
# [14] = Cytotoxicity in A549-hACE2; format: cell-based; conditions: human, A549-hACE2 cells
# Method: as §1
# [15] = Cytotoxicity in uninfected MT-4 cells; format: cell-based, human; conditions: human, uninfected (mock infected) MT-4 T cells, MT-4 T cell line
# Method: as §1
# [16] = Cytotoxicity in unstimulated PBMCs; format: cell-based; conditions: human, unstimulated (resting) PBMCs
# Method: as §1
# [17] = human
# [18] = Cytotoxicity in HEp-2; format: cell-based; conditions: human, HEp-2 cells
# Method: as §1
# [19] = Cytotoxicity across human cell types (summary ranges); format: cell-based; conditions: read-out: mean CC50 range
# Method: as §1
# [20] = biological target: non-HIV aspartic proteases (BACE, cathepsin D, cathepsin E, pepsin, renin, and napsin); format: biochemical; conditions: IC50 considered equal to Ki(app)
# Method: Except for the substrate used in the renin assay, all fluorogenic substrates and recombinant enzymes were purchased from R&D Systems and the assays were performed according to the manufacturer’s recommended procedure with minor changes. For the BACE1 assay, recombinant human BACE1 (50 nM) and test compound at various concentrations were added to a reaction buffer containing 20 mM sodium acetate at pH 4.8 with 0.06% Triton X-100 and 1% DMSO. After a 15-minute pre-incubation, the enzymatic reaction was initiated by the addition of fluorogenic substrate to a final concentration of 1 µM and a total volume of 100 µL. For the Cat D assay, after a 15-minute pre-incubation, the enzymatic reaction was initiated by the addition of the fluorogenic substrate to a final concentration of 4 µM and a total volume of 100 µL. […] Activated Cat E (0.5 nM) and test compound at various concentrations were added to the assay buffer containing 100 mM sodium acetate at pH 3.5 with 200 mM sodium chloride and 1% DMSO. After a 15-minute pre-incubation, the enzymatic reaction was initiated by the addition of the fluorogenic substrate to a final concentration of 20 µM and a total volume of 100 µL. […]
# Enzymatic assay data were analyzed in GraphPad Prism (version 9.3.0) by curve fitting with a four-parameter logistic equation to determine inhibitor half-maximal inhibitory concentration (IC50) values.
# [21] = tested on: HIV-1 IIIb; assay: 5-day cytoprotection antiviral assay in MT-4 cells; format: cell-based
# [22] = Cytotoxicity in cell lines of the non-HIV virus panel (summary); format: cell-based; conditions: human, HepG2-NTCP, Huh7-Lunet replicon cells, NHBE, A549-ACE2, read-out: CC50 range in the corresponding cell lines
# Method: as §1
# [23] = tested on: RSV; assay: RSV-Fluc reporter antiviral assay; conditions: human respiratory syncytial virus, NHBE
# Method: The hepatitis B virus (HBV) surface antigen (HBsAg) antiviral assay was performed as previously described ([28]) using ND-654 as a positive control. The respiratory syncytial virus (RSV) A2 HEp-2 antiviral assay was performed as previously described ([29]) using YM-53403 as a positive control. The severe acute respiratory syndrome coronavirus 2 (SARS-CoV-2) antiviral assay was performed as described previously ([30]) using remdesivir as a positive control.
# [24] = In vivo pharmacokinetics in dog; set-up: species or system Beagle dog
# Method: (§2) Preclinical pharmacokinetic studies were performed in male Sprague–Dawley rats, beagle dogs, and cynomolgus monkeys (three animals per dosing group in each species) following federal and Institutional Animal Care and Use Committee (IACUC) guidelines as described previously ([32]). […] The oral fraction absorbed (F%) was calculated using the formula:
# (§3) %F=( PO Dose AUC0−inf) x (IV Dose)/(IV Dose AUC0−inf) x (PO Dose)×100%
# [25] = tested on: HBV, HCV, RSV, SARS-CoV-2; assay: Antiviral activity against panel of non-HIV viruses (summary); conditions: read-out: EC50 range across non-HIV viruses
# Method: Antiviral assays using appropriate cell lines infected with non-HIV viruses were also performed. […] The hepatitis B virus (HBV) surface antigen (HBsAg) antiviral assay was performed as previously described ([28]) using ND-654 as a positive control. The respiratory syncytial virus (RSV) A2 HEp-2 antiviral assay was performed as previously described ([29]) using YM-53403 as a positive control. The severe acute respiratory syndrome coronavirus 2 (SARS-CoV-2) antiviral assay was performed as described previously ([30]) using remdesivir as a positive control.
# [26] = In vivo pharmacokinetics in rat; set-up: species or system Sprague-Dawley rat
# Method: as §2, §3
# [27] = Cytotoxicity in HepG2-NTCP; format: cell-based; conditions: human, HepG2-NTCP cells
# Method: as §1
# [28] = Cytotoxicity in Gal-PC3; format: cell-based; conditions: human, Gal-PC3 cells
# Method: as §1
compound,measurement,setting,value
CC(C)(CC1(c2ccc(-c3cnn(C4CC4)n3)cc2)NC(=N)N(C(COC(=O)NC2(C(F)F)CC2)c2ccc(Cl)c(-c3ncnn3C(F)F)c2)C1=O)C(F)(F)F (stereo not drawn) [GS-9770],CC50,[1],9 ± 0.4 µM
same,in vitro predicted blood CL,[2],0.15 L/h/kg
same,CC50,[3],20 ± 6 µM
same,EC50,[4],4 nM
same,EC50,[5],10.4 ± 0.3 µM
same,CC50,[6],15.1 ± 3 µM
same,CC50,[7],34 ± 16 µM
same,Eh% (percent predicted hepatic extraction),[8],9%
same,Predicted CL (predicted human clearance),[8],0.11 L/h/kg
same,half-life,[8]; read-out: T½ in the presence of human liver microsomes,> 395 min
same,CC50,[9],16 ± 3 µM
same,finding after repeated oral administration,[10],bronchoalveolar inflammation observed in the lungs of dogs
same,loss in susceptibility,"[11]; virus 8, virus 11 and virus 42",3 fold
same,mutant vs wild-type HIV EC50 FC,"[11]; virus 13 (L10I, M46I, G48V, I50V, V82A, L90M)",21 fold
same,mutant vs wild-type HIV EC50 FC,"[11]; virus 29 (L10F/L, D30N, I54V, N88D, L90M)",12 fold
same,mutant vs wild-type HIV EC50 FC,"[11]; virus 43 (L10I, M46L, I54V, V82A)",11 fold
same,concentration at which Gag polyprotein cleavage and release of mature p24 substantially reduced,[12],10 nM
same,concentration giving complete inhibition of p24 formation,[12],100 nM
same,EC50,[13],26 nM
same,CC50,[14],7.8 ± 2.1 µM
same,CC50,[15],6.6 ± 1.3 µM
same,CC50,[16],9.1 ± 5.5 µM
same,predicted plasma half-life in humans,[17],~ 18.5 hours
same,CC50,[18],17 ± 2 µM
same,CC50,"[19]; Gal-HepG2 and MRC-5 cells, five human cell lines (Gal-PC3, HEp-2, Huh7, Gal-HepG2, MRC-5)",13 to 20 µM
same,CC50,"[19]; human, human cell lines and primary cells (15 cell types), across 15 different cell types",4.7 to 34 µM
same,CC50,[19]; primary human hepatocytes and PBMCs (stimulated and unstimulated),9.1 to 34 µM
same,Ki,"[20]; read-out: Ki(app), lower end of range over six non-HIV proteases",106 nM
same,Ki,"[20]; read-out: Ki(app), upper end of range over six non-HIV proteases",> 100000 nM
same,EC50,"[21]; Human immunodeficiency virus 1, IIIB, T-cell, 120 h",11 ± 2 nM
same,95% effective concentration (EC95),[21]; calculated from MT-4/HIV-1IIIb EC50 and Hill coefficient,21.6 nM
same,CC50,[22],4.7 to 15.1 µM
same,EC50,[23],2500 ± 600 nM
same,CL,"[24]; 1 mg/kg IV, 1 mg/kg",1.1 ± 0.3 L/h/kg
same,tolerability at the doses tested,"[24]; 1 mg/kg IV, 4–5 mg/kg PO",well tolerated
same,bioavailability,"[24]; beagle, plasma, 1 mg/kg IV and 5 mg/kg PO, read-out: F% (oral bioavailability)",100 ± 20%
same,half-life,"[24]; beagle, plasma, 1 mg/kg IV and 5 mg/kg PO, read-out: Terminal t1/2 (converted)",402 ± 36 min
same,Vd,"[24]; beagle, plasma, 1 mg/kg IV, read-out: Vss",5 ± 0.5 L/kg
same,clearance,"[24]; beagle, plasma, iv, 1 mg/kg, 1 mg/kg IV",18.8 mL/min/kg
same,EC50,[25],2.5 to 34 µM
same,F% (oral bioavailability),[26]; 1 mg/kg IV and 5 mg/kg PO,45.9 ± 9.8%
same,tolerability at the doses tested,"[26]; 1 mg/kg IV, 4–5 mg/kg PO",well tolerated
same,clearance,"[26]; male, Sprague-Dawley, plasma, 1 mg/kg IV",3.5 mL/min/kg
same,half-life,"[26]; male, Sprague-Dawley, plasma, 1 mg/kg IV and 5 mg/kg PO, read-out: Terminal t1/2 (converted)",636 ± 84 min
same,Vd,"[26]; male, Sprague-Dawley, plasma, 1 mg/kg IV, read-out: Vss",2.7 ± 0.3 L/kg
same,bioavailability,"[26]; male, Sprague-Dawley, plasma, oral, 5 mg/kg, 1 mg/kg IV and 5 mg/kg PO, read-out: F% (oral bioavailability)",49%
same,CC50,[27],8.4 ± 2 µM
same,CC50,[28],15 ± 4 µM
